Data reported in patent publication US12472159B2, “Compositions comprising amino acids for use in the prevention and treatment of chemotherapy side effects” (Professional Dietetics S.p.A., priority 2020, dated 2025).

What was measured:
[1] = test system: HL-1 cardiomyocytes; experiment: MTT viability assay of HL-1 cardiomyocytes; format: cell-based, mouse; conditions: agent alone; 1% α5 48 h or 1 μM DOX 16 h
Procedure: Rules of the Declaration of Helsinki have been followed. HL-1 cardiomyocytes were obtained from W.C. Claycomb (Millipore Cat #SCC065) and plated in fibronectin/gelatin-coated flasks, grown to 70-80% confluence in Claycomb medium (Sigma-Aldrich) supplemented with 100 μM norepinephrine (from a 10 mM norepinephrine [Sigma-Aldrich] stock solution dissolved in 30 mM L-ascorbic acid [Sigma-Aldrich]), 2 mM L-glutamine, 100 U/ml penicillin, 100 μg/ml streptomycin and 10% Fetal Bovine Serum (FBS, Sigma-Aldrich). MCF-7 human breast cancer cell line (ATCC® HTB-22™) also available from P. Limonta (Pharmacological and Biomolecular Sciences, University of Milan, Milan, Italy) were cultured in pH 7.4 DMEM, containing streptomycin (100 U/ml), penicillin ([…]), and gentamicin ([…]), and supplemented with 10% FBS. Both cell types were treated with […] or α5 for 48 h and 1 μM DOX for 16 h (FIG. 1). HL-1 cell viability was assessed by MTT [3-(4,5-dimethylthiazol-2-yl)-2,5-diphenyltetrazolium bromide] reagent (Sigma, Milan, Italy). […] The purple formazan crystals were dissolved in 5% SDS/0.1 M HCl (100 μl/well), and the absorbance was recorded on a microplate reader (ELx800, BioTek Instruments, VT, USA) at a wavelength of 570 nm. Each test was repeated at least four times in quadruplicates.

[2] = test system: HL-1 cardiomyocytes; experiment: Signaling pathways (eNOS, S6, Sestrin2, Akt, KLF15, BCKDH) in HL-1 cardiomyocytes; format: cell-based, mouse; conditions: HL-1 cells
Procedure: Rules of the Declaration of Helsinki have been followed. HL-1 cardiomyocytes were obtained from W.C. Claycomb (Millipore Cat #SCC065) and plated in fibronectin/gelatin-coated flasks, grown to 70-80% confluence in Claycomb medium (Sigma-Aldrich) supplemented with 100 μM norepinephrine (from a 10 mM norepinephrine [Sigma-Aldrich] stock solution dissolved in 30 mM L-ascorbic acid [Sigma-Aldrich]), 2 mM L-glutamine, 100 U/ml penicillin, 100 μg/ml streptomycin and 10% Fetal Bovine Serum (FBS, Sigma-Aldrich). MCF-7 human breast cancer cell line (ATCC® HTB-22TM) also available from P. Limonta (Pharmacological and Biomolecular Sciences, University of Milan, Milan, Italy) were cultured in pH 7.4 DMEM, containing streptomycin (100 U/ml), penicillin ([…]), and gentamicin ([…]), and supplemented with 10% FBS. Both cell types were treated with […] or α5 for 48 h and 1 μM DOX for 16 h (FIG. 1). […] Lafayette, CO) or siGENOME nontargeting siRNA using Dharmafect 1 transfection reagent. After 24 h transfection, cells were treated with 1% α5 for 24 h and 1 μM DOX for 16 h. Transfection efficacy was determined with siGLO-RISC-free nontargeting siRNA and siRNA uptake by fluorescence detection (absorbance/emission 557/570). Proteins were then extracted for Western blotting analysis.

[3] = test system: HL-1 cardiomyocytes; experiment: Mitochondrial oxidative stress in HL-1 cardiomyocytes (H2O2 release, aconitase, SOD, anti-ROS genes, 8-OHdG); format: cell-based, mouse; conditions: HL-1 cells; agent alone vs untreated cells
Procedure: (§1) Rules of the Declaration of Helsinki have been followed. HL-1 cardiomyocytes were obtained from W.C. Claycomb (Millipore Cat #SCC065) and plated in fibronectin/gelatin-coated flasks, grown to 70-80% confluence in Claycomb medium (Sigma-Aldrich) supplemented with 100 μM norepinephrine (from a 10 mM norepinephrine [Sigma-Aldrich] stock solution dissolved in 30 mM L-ascorbic acid [Sigma-Aldrich]), 2 mM L-glutamine, 100 U/ml penicillin, 100 μg/ml streptomycin and 10% Fetal Bovine Serum (FBS, Sigma-Aldrich). MCF-7 human breast cancer cell line (ATCC® HTB-22™) also available from P. Limonta (Pharmacological and Biomolecular Sciences, University of Milan, Milan, Italy) were cultured in pH 7.4 DMEM, containing streptomycin (100 U/ml), penicillin ([…]), and gentamicin ([…]), and supplemented with 10% FBS. Both cell types were treated with […] or α5 for 48 h and 1 μM DOX for 16 h (FIG. 1).
To investigate the mitochondrial oxidative stress, mitochondria were isolated using the Qproteome Mitochondria isolation kit (Qiagen). Mitochondrial H2O2 release was measured in the presence of horseradish peroxidase (HRP), using the Amplex Red Hydrogen Peroxide/Peroxidase Assay kit (Molecular Probes). Fluorometric measures were made using a Fusion Universal Microplate Analyzer (Packard/PerkinElmer) with excitation filter at 550 nm and emission filter at 590 nm. H2O2 production, calculated from a standard curve, was expressed as nmol/min/mg protein as described Moreover, mitochondrial aconitase and SOD activity were measured as previously described. Briefly, the formation of NADPH was followed spectrophotometrically (340 nm) at 25° C. (for aconitase activity), while SOD activity was measured with the Superoxide Dismutase Assay Kit (Calbiochem). […] Finally, the oxidative damage of DNA was measured as a further marker of oxidative stress. […] Quality and quantity of DNA were confirmed by a NanoDrop ND-1000 spectrophotometry analysis. Absorbance of the ELISA reaction product was determined spectrophotometrically using 450 nm as the primary wave.

[4] = test system: left ventricle of DOX-treated mice; experiment: Signaling pathways (eNOS, mTORC1, Sestrin2, KLF15, BCKDH) in left ventricle of mice; format: in vivo, C57BL6/J mice
Procedure: (§2) Drinking volume, food intake, and body weight were checked twice weekly. At the end of the treatment period, mice were sacrificed by cervical dislocation and hearts quickly removed and freshly used (for oxygen consumption analysis) or frozen in liquid nitrogen and stored at ˜80° C. (for mtDNA, mRNA, and protein level measurement, in addition to citrate synthase activity analysis).
(§3) Quantitative RT-PCRs were performed as previously described [3-7] with the iQ SybrGreenl SuperMix (Bio-Rad; Segrate, Italy) on an iCycler iQ real-time PCR detection system (Bio-Rad). Briefly, RNA was isolated from left ventricle using the RNeasy Tissue Mini Kit (Qiagen) or from HL-1 cells using the RNeasy Mini Kit (Qiagen). cDNA was synthesized using the iScript cDNA Synthesis Kit (Bio-Rad Laboratories).
Protein extracts were obtained from left ventricle with T-PER mammalian protein extraction reagent (Pierce, ThermoScientific, Rockford, USA) or from HL-1 cells in M-PER mammalian protein extraction reagent (Pierce, ThermoScientific, Rockford, USA), as indicated by the manufacturer, in the presence of 1 mM NaVO4, 10 mM NaF and a cocktail of protease inhibitors (Sigma-Aldrich, Milan, Italy). Protein content was determined by the bicinchoninic acid protein assay (BCA, Pierce, Euroclone, Milan, Italy), and 50 of the protein extract was separated by SDS-PAGE under reducing conditions. The separated proteins were then electrophoretically transferred to a nitrocellulose membrane (Bio-Rad Laboratories, Segrate, Italy) [3-8]. Proteins of interest were detected with specific antibodies: anti-COX IV (cytochrome c oxidase subunit IV, Cell Signaling Technology Cat #4844, Euroclone, Milan, Italy), anti-cyt c (cytochrome complex, Cell Signaling Technology Cat #4280), anti-PGC-1α (proliferator-activated receptor γ coactivator 1α, Cell Signaling Technology Cat #2178), anti-phospho-AKT (Ser473) (Cell Signaling Technology Cat #4060), anti-AKT (Cell Signaling Technology Cat #4685), anti-phospho-eNOS (Ser1177) (phospho-endothelial nitric oxide synthase, Cell Signaling Technology Cat #9571), anti-eNOS (Cell Signaling Technology Cat #9572), anti-phospho-S6 (Ser235/236) (phospho-S6, Cell Signaling Technology Cat #4858), anti-S6 (Cell Signaling Technology Cat #2217), anti-phospho-mTOR (Ser2481) (Cell Signaling Technology Cat #2974), anti-mTOR (Cell Signaling Technology Cat #2972), anti-phospho-BCKDH (Ser293) (Abcam Cat #200577), anti-BCKDH (Abcam Cat #138460), and anti-GAPDH (1:1000, Cell Signaling Technology Cat #2118) at 1:1000 dilution each. After the visualization of phospho-eNOS, phospho-AKT, phospho-mTOR, phospho-S6, and anti-phospho-BCKDH the filters were stripped with the Restore™ western blot stripping buffer (Euroclone, Milan, Italy) and further used for the visualization of total eNOS, total AKT, total mTOR, total S6, or total BCKDH. Immunostaining was performed using horseradish peroxidase-conjugated anti-rabbit or anti-mouse immunoglobulin for 1 h at room temperature. The protein was detected using SuperSignal substrate (Pierce, Euroclone, Milan, Italy) and quantified by densitometry with ImageJ image analysis software.

[5] = test system: HL-1 cardiomyocytes; experiment: Citrate synthase activity in HL-1 cardiomyocytes; format: cell-based, mouse; conditions: HL-1 cells; agent alone vs untreated cells
Procedure: as §1

[6] = test system: HL-1 cardiomyocytes; experiment: Mitochondrial biogenesis marker mRNA levels by quantitative RT-PCR in HL-1 cardiomyocytes; format: cell-based, mouse; conditions: HL-1 cells; for mRNA levels of mitochondrial biogenesis markers (PGC-1α, NRF1, Tfam, cyt c, COX IV): agent alone vs untreated cells, α5 1% w/v or BCAAem 48 h, 1 μM DOX 16 h; for prevention of DOX-induced decrease of mitochondrial biogenesis marker mRNA: supplement 48 h with 1 μM DOX 16 h, vs DOX-treated cells
Procedure: as §1, with “1). […] The cycle number at which the various transcripts were detectable (threshold cycle, CT) was compared to that of TBP, referred to as ΔCT.” for “1).”

[7] = test system: HL-1 cardiomyocytes; experiment: Klf15, eNOS and Raptor siRNA knockdown in HL-1 cardiomyocytes, RT-PCR and immunoblot; format: cell-based, mouse; conditions: HL-1 cells
Procedure: For the study of phospho-proteins, HL-1 cells were treated with 1% α5 for 2 h and 1 μM DOX (Doxo-HCl from Sigma-Aldrich D15D15) for the last 60 min. […] After 24 h transfection, cells were treated with 1% α5 for 24 h and 1 μM DOX for 16 h. Transfection efficacy was determined with siGLO-RISC-free nontargeting siRNA and siRNA uptake by fluorescence detection (absorbance/emission 557/570). Proteins were then extracted for Western blotting analysis.

[8] = test system: left ventricle of DOX-treated mice; experiment: Mitochondrial biogenesis, mass, function and ROS defense genes in left ventricle of DOX-treated mice
Procedure: as §2, §3
For mtDNA analysis, total DNA was extracted with a QIAamp DNA Extraction Kit (Qiagen). mtDNA was amplified using primers specific for the mtDNA and normalized to the 18S gene (Table 2) [9]. The mtDNA content was determined using qRT-PCR by measuring the threshold cycle ratio (ΔCT) of the mtDNA gene vs. that of a nuclear encoded gene (18S) in left ventricle of DOX-, α5- or DOX plus α5-treated mice, in addition to control untreated mice [10,11].
The activity was measured spectrophotometrically at 412 nm at 30° C. in left ventricle extracts [12,13].

Compound: COc1cccc2c1C(=O)c1c(O)c3c(c(O)c1C2=O)C[C@@](O)(C(=O)CO)C[C@@H]3O[C@H]1C[C@H](N)[C@H](O)[C@H](C)O1 [DOX, doxorubicin]
- HL-1 cell survival (MTT) [1]: DOX-induced death of HL-1 cells
- (Ser293)-BCKDH phosphorylation (p-BCKDH) ([2]; DOX vs untreated, α5 with or without DOX): not different
- (Ser235/236)-S6 phosphorylation ([2]; agent alone): markedly decreased
- (Ser 473)-Akt phosphorylation ([2]; agent alone): markedly reduced Akt phosphorylation
- KLF15 expression (mRNA and protein) ([2]; agent alone): reduced both at mRNA and protein levels
- Sestrin2 expression ([2]; agent alone): markedly increased
- (Ser1177)-eNOS phosphorylation ([2]; agent alone, 1 μM DOX): markedly reduced
- eNOS gene expression ([2]; agent alone, 1 μM DOX or α5 1% w/v): only slightly decreased
- 8-hydroxy-2′-deoxyguanosine (8-OHdG), oxidative DNA damage [3]: higher amount
- expression of GPX1 and SOD1 genes [3]: increased
- mitochondrial H2O2 release [3]: markedly increased
- Klf15 mRNA levels in left ventricle ([4]; agent alone): significantly reduced
- Ser2481 mTOR phosphorylation in heart ([4]; agent alone): reduced
- Sestrin2 mRNA in left ventricle ([4]; agent alone): markedly increased
- eNOS activity, (Ser1177)phospho-eNOS to total eNOS ratio, in left ventricle ([4]; agent alone): only partially eNOS activity
- eNOS expression in left ventricle ([4]; agent alone): decreased eNOS expression
- (Ser235/236)phospho-S6 to total S6 ratio in left ventricle ([4]; agent alone vs saline): decreased
- (Ser293)-BCKDH phosphorylation in left ventricle ([4]; agent alone vs saline-treated): unchanged
- citrate synthase activity [5]: reduction of citrate synthase activity
- mRNA levels of mitochondrial biogenesis markers (PGC-1α, NRF1, Tfam, cyt c, COX IV) [6]: decreased
- PGC-1α and COX IV protein ([7]; Klf15 siRNA-transfected or otherwise untreated, DOX exposure): significantly decreased both PGC-1α and COX IV protein
- (Ser293)-BCKDH phosphorylation in Klf15 knockdown cells ([7]; Klf15 siRNA, DOX-treated and untreated): unable to change phosphorylation
- expression of ROS defense enzymes (SOD1, SOD2, catalase, GPX1) in left ventricle ([8]; agent alone): augmented the expression of ROS defense enzymes
- mRNA levels of mitochondrial biogenesis genes in left ventricle ([8]; agent alone vs control group): reduced
- mitochondrial mass and function (mtDNA amount, respiratory proteins particularly COX IV, citrate synthase activity) in left ventricle ([8]; agent alone vs saline-treated): lower
- oxygen consumption rate (OCR) of mitochondria isolated from left ventricle ([8]; agent alone, Clark's electrode): decreased OCR

Compound: O=C(O)CC(O)(CC(=O)O)C(=O)O [citric acid]
- mRNA levels of mitochondrial biogenesis markers (PGC-1α, NRF1, Tfam, cyt c, COX IV) [6]: unable to prevent the DOX-induced reduction of mitochondrial biogenesis as well as to change the mitochondrial gene expression when supplemented alone
- prevention of DOX-induced decrease of mitochondrial biogenesis marker mRNA [6]: unable to prevent the DOX-induced reduction of mitochondrial biogenesis

Compound: O=C(O)CC(O)C(=O)O (centres unmarked) [malic acid]
- mRNA levels of mitochondrial biogenesis markers (PGC-1α, NRF1, Tfam, cyt c, COX IV) [6]: unable to prevent the DOX-induced reduction of mitochondrial biogenesis as well as to change the mitochondrial gene expression when supplemented alone
- prevention of DOX-induced decrease of mitochondrial biogenesis marker mRNA [6]: unable to prevent the DOX-induced reduction of mitochondrial biogenesis

Compound: O=C(O)CCC(=O)O [succinic acid]
- mRNA levels of mitochondrial biogenesis markers (PGC-1α, NRF1, Tfam, cyt c, COX IV) [6]: unable to prevent the DOX-induced reduction of mitochondrial biogenesis as well as to change the mitochondrial gene expression when supplemented alone
- prevention of DOX-induced decrease of mitochondrial biogenesis marker mRNA [6]: unable to prevent the DOX-induced reduction of mitochondrial biogenesis
